Values quoted from earlier work, collected in patent publication US10188676B2, “Anti-inflammatory solution” (Hypo-Stream Limited, priority 2013, dated 2019).

Tested on: alveolar osteitis (AO)
Conditions: 0.2% solution or gel, surgical site irrigation

[H]/N=C(\N/C(=N/[H])NCCCCCCNC(=N)NC(=N)Nc1ccc(Cl)cc1)Nc1ccc(Cl)cc1 [chlorhexidine]
effectiveness against alveolar osteitis: Neither report found evidence of effectiveness
